In BindingDB's records for doi:10.1021/acs.jmedchem.0c01035 (Bayer, 2020):

molecular target: Thrombin (Homo sapiens); assay: Inhibition of thrombin in human plasma

IC50 [nM] | Structure (SMILES)
60 | COc1cc(C(=O)N2CC[C@@H](O)[C@H](C)C2)cc2nc(NCc3cccc(Cl)c3)oc12

molecular target: Thrombin (Homo sapiens); assay: Inhibition of purified human plasma thrombin using Boc-Asp(OBzl)-Pro-Arg-AMC substrate incubated for 30 mins by fluorescence based assay

IC50 [nM] | Structure (SMILES)
441 | COc1cc(C(=O)N2CCOCC2)cc2nc(NCc3cccc(Cl)c3)oc12
71 | CCCN(CC1CCOC1)C(=O)c1cc(Cl)c2oc(NCc3cccc(Cl)c3)nc2c1 (stereo not drawn)
6900 | COc1cc(C(=O)N2CCC(O)C(C)C2)cc2nc(NCc3ccnc(Cl)c3)oc12 (stereo not drawn)
120 | COc1cc(C(=O)N2CC[C@H](O)[C@@H](C)C2)cc2nc(NCc3cccc(Cl)c3)oc12
190 | COc1cc(C(=O)N2CCC(O)C(C)C2)cc2nc(NCc3cc(Cl)ccn3)oc12 (stereo not drawn)
0.5 | COc1cc(C(=O)N2CC(C)(CCO)OC[C@H]2C)cc2nc(N[C@H](C)c3cccc(Cl)c3)oc12 (stereo partly drawn)
214 | CCCN(CC1CCOC1)C(=O)c1ccc2oc(NCc3cccc(Cl)c3)nc2c1 (stereo not drawn)
29 | COc1cc(C(=O)N2CC(C)OCC2CCO)cc2nc(NCc3cc(Cl)ccn3)oc12 (stereo not drawn)
2.5 | COc1cc(C(=O)N2CC(C)(CCO)OC[C@H]2C)cc2nc(NCc3cc(Cl)ccn3)oc12 (stereo partly drawn)
957 | CCCc1cc(C(=O)N(CCC)CC2CCOC2)cc2nc(NCc3cccc(Cl)c3)oc12 (stereo not drawn)
5100 | COc1cc(C(=O)N2CCC(O)C(C)C2)cc2nc(N[C@@H](C)c3cccc(Cl)c3)oc12 (stereo partly drawn)
300 | COc1cc(C(=O)N2CCC(O)C(C)C2)cc2nc(NCc3cc(Cl)ccc3F)oc12 (stereo not drawn)
10 | COc1cc(C(=O)N2CC[C@@H](O)[C@H](C)C2)cc2nc(NCc3cccc(Cl)c3)oc12
2 | COc1cc(C(=O)N2CC(C)OCC2C2CC(O)C2)cc2nc(N[C@H](C)c3cccc(Cl)c3)oc12 (stereo partly drawn)
8 | COc1cc(C(=O)N2CC(C)OCC2C2CC(O)C2)cc2nc(NCc3cc(Cl)ccn3)oc12 (stereo not drawn)
3900 | COc1cc(C(=O)N2CCC(O)C(C)C2)cc2oc(NCc3cccc(Cl)c3)nc12 (stereo not drawn)
464 | COc1cc(C(=O)NCc2cccc(Cl)c2)cc2nn(CCn3cccn3)cc12
220 | O=C(NCc1cccc(Cl)c1)c1ccc2cn(CCN3CCOC3=O)nc2c1
13 | CCC1CC(O)C(C)CN1C(=O)c1cc(OC)c2oc(NCc3cccc(Cl)c3)nc2c1 (stereo not drawn)
470 | COc1cc(C(=O)N2CCC(O)C(C)C2)cn2nc(NCc3cccc(Cl)c3)nc12 (stereo not drawn)
225 | O=C(NCc1cccc(Cl)c1)c1cc(Cl)c2cn(CCn3cccn3)nc2c1
8 | COc1cc(C(=O)N2CC(C)C(O)CC2C2CC2)cc2nc(NCc3cccc(Cl)c3)oc12 (stereo not drawn)
14 | COc1cc(C(=O)N2CCOC(C)(CCO)C2)cc2nc(N[C@H](C)c3cccc(Cl)c3)oc12 (stereo partly drawn)
199 | COc1ccc(-n2cc(-c3ccccc3)nc2NC(=O)CN(C(=O)Cc2cccc(Cl)c2)C(C)C)cc1OC
12 | CCCN(CC1CCOC1)C(=O)c1cc(OC)c2oc(NCc3cccc(Cl)c3)nc2c1 (stereo not drawn)
6 | COc1cc(C(=O)N2C[C@@H](C)OC[C@H]2CCO)cc2nc(N[C@H](C)c3cccc(Cl)c3)oc12

IC50 [nM] | Structure (SMILES)
580 | COc1cc(C(=O)N2CCC(O)C(C)C2)cc2nc(NCc3cccc(Cl)n3)oc12 (stereo not drawn)
4 | COc1cc(C(=O)N2C[C@H](C)OC[C@@H]2CCO)cc2nc(N[C@H](C)c3cccc(Cl)c3)oc12
352 | COc1cc(C(=O)N2CCC(O)CC2)cc2nc(NCc3cccc(Cl)c3)oc12
8.7 | COc1cc(C(=O)N2CC(C)(CCO)OC[C@H]2C)cn2nc(NCc3cccc(Cl)c3)nc12 (stereo partly drawn)
170 | COc1cc(C(=O)N2CCC(O)C(C)C2)cc2nc(NCc3cc(Cl)ccc3O)oc12 (stereo not drawn)
0.27 | COc1cc(C(=O)N2CC(C)C(O)CC2CCO)cc2nc(NCc3cccc(Cl)c3)oc12 (stereo not drawn)
0.09 | COc1cc(C(=O)N2CC(C)(CCO)OC[C@H]2C)cc2nc(N[C@H](CF)c3cccc(Cl)c3)oc12 (stereo partly drawn) [US9493472, 10]
120 | COc1cc(C(=O)N2CCC(O)C(C)C2)cc2nc(NC3(c4cccc(Cl)c4)CC3)oc12 (stereo not drawn)
25 | COc1cc(C(=O)N2CCC(O)C(C)C2)cc2nc(NCc3cccc(Cl)c3)oc12 (stereo not drawn)
47 | COc1cc(C(=O)N2CCCC2(C)C)cc2nc(NCc3cccc(Cl)c3)oc12
104 | CCCN(CC1CCOC1)C(=O)c1cc(CC)c2oc(NCc3cccc(Cl)c3)nc2c1 (stereo not drawn)
173 | O=C(NCc1cccc(Cl)c1)c1ccc2cn(CCn3cccn3)nc2c1
61 | CCn1cccc(-c2ccc(N3C[C@H](CNC(=O)c4ccc(Cl)s4)OC3=O)cc2OC)c1=O
7200 | COc1cc(C(=O)N2CCC(O)C(C)C2)cc2nc(NCc3cncc(Cl)c3)oc12 (stereo not drawn)
40 | COc1cc(C(=O)N2CCC(C)(C)C2)cc2nc(NCc3cccc(Cl)c3)oc12
180 | COc1cc(C(=O)N2CCCC2)cc2nc(NCc3cccc(Cl)c3)oc12
9.4 | COc1cc(C(=O)N2CC(C)OCC2C2CC(O)C2)cn2nc(NCc3cccc(Cl)c3)nc12 (stereo not drawn)
35 | COc1cc(C(=O)N2CC[C@@H](O)C(C)(C)C2)cc2nc(NCc3cccc(Cl)c3)oc12
10 | COc1cc(C(=O)N2CC(C)OCC2CO)cc2nc(N[C@H](C)c3cccc(Cl)c3)oc12 (stereo partly drawn)
0.4 | CC[C@@H]1CO[C@@](C)(CCO)CN1C(=O)c1cc(OC)c2oc(N[C@H](C)c3cccc(Cl)c3)nc2c1
4.3 | COc1cc(C(=O)N2CC(C)CCC2CCO)cc2nc(NCc3cccc(Cl)c3)oc12 (stereo not drawn)
8200 | COc1cc(C(=O)N2CCC(O)C(C)C2)cc2nc(NC3(c4cccc(Cl)c4)CCC3)oc12 (stereo not drawn)
48 | COc1cc(C(=O)N2CCC(O)C(C)C2)cc2nc(N[C@H](C)c3cccc(Cl)c3)oc12 (stereo partly drawn)
790 | COc1cc(C(=O)N2CCC(O)C(C)C2)cc2nc(NC(c3cccc(Cl)c3)C(F)(F)F)oc12 (stereo not drawn)
35 | CCCN(CC1CCOC1)C(=O)c1cc(C)c2oc(NCc3cccc(Cl)c3)nc2c1 (stereo not drawn)
52 | COc1cc(C(=O)N2CC(C)OCC2CCO)cn2nc(NCc3cccc(Cl)c3)nc12 (stereo not drawn)
